Assay results as given in patent publication EP3175850B1, “PHARMACEUTICAL COMPOSITION FOR ALLEVIATING OR TREATING GOUT AND USES THEREOF” (Industrial Technology Research Institute, priority 2014, dated 2016).

Experiments:
Type in all cases: in vivo
[1] = test system: neutrophil cell (CD45^+/Ly6G^+ cells); assay: Mouse air pouch model (MSU crystal-induced acute gouty arthritis): neutrophil cell density in exudate by flow cytometry; conditions: Example 4, Table 3; for INHIBITION RATE (neutrophil cell density): CD45^+/Ly6G^+ cells, vs blank control, topical 100 mg paste/mouse (5 mg total active); for AVERAGE VALUES (normalized cell density, neutrophil CD45^+/Ly6G^+ cells): topical 100 mg paste/mouse (5 mg total active) 15 hours prior to MSU, exudate 5 hours after MSU, blank control 360
Method: (§1) Mouse Air pouch model: this mouse model may be referenced to the methods and the experimental details as in the published article "Role of S100A8 and S100A9 in neutrophil recruitment in response to monosodium urate monohydrate crystals in the air-pouch model of acute gouty arthritis", Arthritis Rheum 2003 Aug, 48(8):2310-20.
(§2) Before the experiment, the mice are shaved to remove back hair. At day 0 sterile filtered air (2 ml/per mouse) is injected through 0.22 µm microfilter to the back of each mouse subcutaneously, so that a pseudosynovial cavity is formed in each mouse. At day 3, an air booster (3 ml/mouse) is again given to each mouse, so that the air pouch is maintained round. Later, the mice are weighed and grouped so that the average weight of the mice in each group is about the same. At day 6 monosodium urate (MSU) crystal suspension (5 mg in 2 ml/per mouse) is injected into the air pouch. Topical application of the paste (100 mg paste/per mouse) is administrated 15 hours prior to MSU stimulation. At a specific time (5 hours) after the injection of MSU, the mice were euthanized with an excess of carbon dioxide, 2 ml PBS per mouse is injected into the air pouch, and the air pouch is carefully cut to collect the exudate. The collected exudate is subjected to the centrifugation at 1,000 rpm, 4°C for 5 minutes, and the supernatant is then placed in a 96-well plate and stored at -20°C. An ELISA kit (purchased from R&D Systems) is used to analyze the contents of IL-1β and IL-6 in the exudate. The precipitate is resuspended and reacted with 1 ml red blood cell lysis buffer (RBC lysis buffer) for one minute to remove the red blood cells, followed by adding 1 ml PBS to terminate the reaction, centrifuged at 1,000 rpm, 25°C for 5 minutes, and the supernatant is discarded. The precipitate is then resuspended in 1 ml PBS as the cell suspension and the cell suspension is filtered by filter membrane (BD Falcon 100 µm Nylon filter strainer) and the filtered cell suspension is dispensed into several tubes (0.25 ml/tube) for subsequent cell counting or for labelling with various differentiation antigen markers (such as cluster of differentiation (CD) markers). The flow cytometry is used for cell counting of the various cells.
(§3) In order to investigate the anti-gout efficacy of AG02-RA1 and AG04-RA1, either used alone or in combination, the experiments are performed to test AG02-RA1 alone, AG04-RA1 alone and the combination(s) of AG02-RA1 :AG04-RA1 in the ratio of 50:50 (Composition Nos. 1, 2 and 3 as shown in Table 1). The total weight of the content of AG02-RA1 and/or AG04-RA1 is 5 mg, accounting for 5 % of the total weight of the test sample paste composition. […]

[2] = test system: leukocyte cell (CD45^+ cells); assay: Mouse air pouch model (MSU crystal-induced acute gouty arthritis): leukocyte cell density in exudate by flow cytometry; conditions: for AVERAGE VALUES (normalized leukocyte cell density): Example 4, Table 2, topical 100 mg paste/mouse (5 mg total active) 15 hours prior to MSU, exudate 5 hours after MSU, blank control 803; for INHIBITION RATE (leukocyte cell density): Example 4, Table 2, vs blank control, topical 100 mg paste/mouse (5 mg total active) 15 hours prior to MSU, 5 hours after MSU
Method: as §1, §2, §3

[3] = test system: interleukin-6 (mIL-6); assay: Mouse air pouch model (MSU crystal-induced): IL-6 content of exudate by ELISA; conditions: Example 4, Figure 4; topical 100 mg paste/mouse (5 mg total active) 15 hours prior to MSU; exudate 5 hours after MSU
Method: as §1
(§4) Before the experiment, the mice are shaved to remove back hair. At day 0 sterile filtered air (2 ml/per mouse) is injected through 0.22 µm microfilter to the back of each mouse subcutaneously, so that a pseudosynovial cavity is formed in each mouse. At day 3, an air booster (3 ml/mouse) is again given to each mouse, so that the air pouch is maintained round. Later, the mice are weighed and grouped so that the average weight of the mice in each group is about the same. At day 6 monosodium urate (MSU) crystal suspension (5 mg in 2 ml/per mouse) is injected into the air pouch. Topical application of the paste (100 mg paste/per mouse) is administrated 15 hours prior to MSU stimulation. At a specific time (5 hours) after the injection of MSU, the mice were euthanized with an excess of carbon dioxide, 2 ml PBS per mouse is injected into the air pouch, and the air pouch is carefully cut to collect the exudate. The collected exudate is subjected to the centrifugation at 1,000 rpm, 4°C for 5 minutes, and the supernatant is then placed in a 96-well plate and stored at -20°C. […]

[4] = test system: interleukin-1β (mIL-1β); assay: Mouse air pouch model (MSU crystal-induced): IL-1β content of exudate by ELISA; conditions: Example 4, Figure 3; topical 100 mg paste/mouse (5 mg total active) 15 hours prior to MSU; exudate 5 hours after MSU
Method: as §1, §4

| Molecule | INHIBITION RATE (neutrophil cell density) [1] [%] | AVERAGE VALUES (normalized cell density, neutrophil CD45^+/Ly6G^+ cells) [1] [cells*10^3/ml] | AVERAGE VALUES (normalized leukocyte cell density) [2] [cells* 10^3/ml] | INHIBITION RATE (leukocyte cell density) [2] [%] | inhibition rate of interleukin-6 secretion [3] [%] | inhibition rate of interleukin-1β secretion [4] [%] |
| --- | --- | --- | --- | --- | --- | --- |
| 3,7,11,15(17)-cembratetraene-16,2:19,6-diolide-3484-37-5(3E,12E)-3,12-dimethyl-8-methylene-6,18-dioxa-tricyclo[14.2.1.0.5,9]nonadeca-3,12,16(19)-triene-7,17-dione [AG02-RA1] | 63 | 133 | 1609 | -100 | – | – |
| CC(=O)OCC=Cc1ccc(OC(C)=O)cc1 [AG04-RA1, 4-(3-acetoxy-propenyl)-phenyl acetate] | 43 | 205 | 670 | 17 | > 50 | > 50 |
